Laboratory results published in US5977442A, “Salicylic acid induced map kinase and its use for enhanced disease resistance in plants” (priority 1997, dated 1999).

Target: T1, p48 SIP kinase (Nicotiana tabacum, UniProt A0A1S3Z5Y0)
T1 construct: endogenous in cells; host or cells: SA-treated tobacco suspension culture cells (purified through the poly-L-lysine agarose step)
Assay: In-solution kinase assay: effects of various reagents on p48 SIP kinase activity
Type: biochemical, tobacco
Conditions: for activity at 5000 µM: 5 mM; for effect on p48 SIP kinase activity: partially purified p48 SIP kinase
Method: Unless specifically indicated, assays were performed at room temperature for 20 minutes in a final volume of 15 μl containing 0.5 mg/mL of MBP, 50 μM of γ-^32 P-ATP (about 3000-6000 cpm/pmole), 25 mM Tris pH 7.5, 5 mM MgCl2, 1 mM EGTA, 1 mM DTT, and enzyme. The reaction was terminated by the addition of equal volume of 150 mM H3 PO4. Twenty μL of the mixture was spotted onto an 8-well phosphocellulose filter strip (Pierce, Ill.). After washing with 150 mM H3 PO4 extensively, the phospho-protein was eluted with 0.4 mL of 1 N NaOH, and the radioactivity was determined by liquid scintillation counting. Total cpm in the reaction mixture was also determined in order to calculate the specific activity of the enzyme preparation. One unit of p48 SIP kinase was defined as the amount of enzyme that will catalyze the transfer of 1 pmole of phosphate from ATP to MBP in 1 minute.
^a For each reagent, a dose response curve was measured under standar
assay conditions. About 0.5 unit of enzyme was used for each reaction.
Control was the enzyme activity in the absence of reagent.

[1] = 20 min, pH 7.5, read-out: Relative Activity

T1 sequence (A0A1S3Z5Y0 whole entry): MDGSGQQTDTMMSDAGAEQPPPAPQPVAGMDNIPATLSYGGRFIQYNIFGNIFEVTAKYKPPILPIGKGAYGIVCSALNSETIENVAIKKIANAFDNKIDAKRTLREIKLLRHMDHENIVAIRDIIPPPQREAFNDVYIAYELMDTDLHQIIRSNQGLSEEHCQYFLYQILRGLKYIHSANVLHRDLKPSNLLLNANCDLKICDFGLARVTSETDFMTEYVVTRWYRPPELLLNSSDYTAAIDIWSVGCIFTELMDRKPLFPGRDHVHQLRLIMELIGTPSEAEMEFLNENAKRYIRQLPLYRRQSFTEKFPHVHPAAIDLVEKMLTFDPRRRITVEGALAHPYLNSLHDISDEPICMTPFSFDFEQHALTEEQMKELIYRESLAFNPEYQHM

OC(CS)C(O)CS (stereo not drawn) [DTT]
activity at 5000 µM [1]: 100%

CN(C)C(=O)/N=N/C(=O)N(C)C [Diamide]
activity at 5000 µM [1]: 50%

O=C(O)CN(CCOCCOCCN(CC(=O)O)CC(=O)O)CC(=O)O [EGTA]
activity at 10000 µM (20 min, pH 7.5, 10 mM, read-out: Relative Activity): 100% | effect on p48 SIP kinase activity: no effect on its activity

O=c1c(-c2ccc(O)cc2)coc2cc(O)cc(O)c12 [Genistein, genistein]
activity at 20 µM (20 min, pH 7.5, 20 μM, read-out: Relative Activity): 100% | effect on p48 SIP kinase activity: no effect on its activity

COC(=O)[C@@]1(O)C[C@H]2O[C@]1(C)n1c3ccccc3c3c4c(c5c6ccccc6n2c5c31)C(=O)NC4 [K-252a]
IC50: 12 nM | activity at 0.012 µM [1]: 50%

[Na+] [Na^+]
Relative Activity (100 mM, 20 min): 100 % of control | Relative Activity (750 mM, 20 min): 50 % of control

NCCCCNCCCN [Spermidine, spermidine]
activity at 1000 µM (20 min, pH 7.5, 1 mM, read-out: Relative Activity): 100% | effect on p48 SIP kinase activity: showed no effect at the concentrations tested

CN[C@@H]1C[C@H]2O[C@@](C)([C@@H]1OC)n1c3ccccc3c3c4c(c5c6ccccc6n2c5c31)C(=O)NC4 [Staurosporine, staurosporine]
IC50: 60 nM | activity at 0.06 µM [1]: 50%

[Zn+2] [Zn^2+]
Relative Activity (0.10 mM, 20 min): 100 % of control | Relative Activity (0.25 mM, 20 min): 50 % of control | effect on p48 SIP kinase activity: inhibited the enzyme

Heparin
Relative Activity (50 μg mL^-1, 20 min): 50 % of control | effect on p48 SIP kinase activity: showed inhibitory effects

Poly-L-glutamate
Relative Activity (500 μg mL^-1, 20 min): 50 % of control | effect on p48 SIP kinase activity: showed inhibitory effects

Poly-L-glutamine
Relative Activity (500 μg mL^-1, 20 min): 100 % of control | effect on p48 SIP kinase activity: showed no effect at the concentrations tested

Poly-L-lysine
Relative Activity (25 μg mL^-1, 20 min): 50 % of control | effect on p48 SIP kinase activity: showed inhibitory effects

Protamine
Relative Activity (25 μg mL^-1): 50 % of control | effect on p48 SIP kinase activity: showed inhibitory effects
